According to patent publication US20230085307A1, “PYRIDAZINONE COMPOUND AND HERBICIDE” (NISSAN CHEMICAL CORPORATION, priority 2019, published 2023):

Experiments:
Chinese sprangletop = assay: Test Example 3: herbicidal effect by foliage application, Wagner pot (Table 18, symbol D); type: in vivo, chinese sprangletop (Leptochloa chinensis); conditions: for herbicidal effect on Chinese sprangletop (D): 320 g/ha; for Herbicidal effect on D (Chinese sprangletop), foliage application: amount of applied herbicide 320 g/ha
Outline: (§1)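 Plants were sown in alluvial soil held under 0.1–0.5 cm standing water and grown 14 days in a greenhouse at 25–30 °C. An emulsifiable formulation, water-diluted to the set dose, was then sprayed onto the foliage, and effects were scored three weeks later using previously defined criteria.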

lambsquarters = assay: Test Example 5: herbicidal effect by foliage application, plastic box (Table 20, symbol O); type: in vivo, lambsquarters (Chenopodium album); conditions: for herbicidal effect on lambsquarters (O): foliage application, 320 g/ha, three weeks after application
Outline: (§2)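 Foliar spray test: emulsion formulation diluted in water to a set application rate, sprayed onto 14-day-old plants raised in diluvial soil at 25° C to 30° C under glass. Both herbicidal effect and crop effect rated visually three weeks later.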

rice flat sedge = assay: Test Example 3: herbicidal effect by foliage application, Wagner pot (Table 18, symbol E); type: in vivo, rice flat sedge (Cyperus iria); conditions: for herbicidal effect on rice flat sedge (E): 320 g/ha; for Herbicidal effect on E (rice flat sedge), foliage application: amount of applied herbicide 320 g/ha
Outline: as §1

redroot pigweed = assay: Test Example 4: herbicidal effect by soil treatment (Table 19, symbol N); type: in vivo, redroot pigweed (Amaranthus retroflexus); conditions: amount of applied herbicide 320 g/ha
Outline: (§3)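 Step 1: sow seeds in sterilized diluvial soil, cover ~1.5 cm. Step 2: spray diluted emulsion onto soil surface at predetermined rate. Step 3: greenhouse, 25–30° C, three weeks. Step 4: grade effect on each plant by earlier criteria.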

velvetleaf = assay: Test Example 5: herbicidal effect by foliage application, plastic box (Table 20, symbol M); type: in vivo, velvetleaf (Abutilon theophrasti); conditions: for herbicidal effect on velvetleaf (M): foliage application, 320 g/ha, three weeks after application
Outline: as §2

Italian ryegrass = assay: Test Example 5: herbicidal effect by foliage application, plastic box (Table 20, symbol K); type: in vivo, Italian ryegrass (Lolium multiflorum); conditions: for herbicidal effect on Italian ryegrass (K): foliage application, 320 g/ha, three weeks after application
Outline: as §2

blackgrass [1] = assay: Test Example 4: herbicidal effect by soil treatment (Table 19, symbol J); type: in vivo, blackgrass (Alopecurus myosuroides); conditions: amount of applied herbicide 320 g/ha
Outline: as §3

oval-leafed pondweed = assay: Test Example 1: herbicidal activity, application before weed generation under submerged conditions (Table 16, symbol C); type: in vivo, oval-leafed pondweed (Monochoria vaginalis); conditions: amount of applied herbicide 320 g/ha
Outline: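 Submerged Wagner pots (alluvial soil, 4 cm water) sown with weed seeds and planted with 2.5-leaf rice seedlings; emulsifiable concentrate diluted in water applied to water surface on sowing day. Held in greenhouse at 25-30 °C; injury scored 0-5 by herbicidal rate after three weeks.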

southern crabgrass [2] = assay: Test Example 4: herbicidal effect by soil treatment (Table 19, symbol F); type: in vivo, southern crabgrass (Digitaria ciliaris); conditions: amount of applied herbicide 320 g/ha
Outline: as §3

wild oat [3] = assay: Test Example 5: herbicidal effect by foliage application, plastic box (Table 20, symbol I); type: in vivo, wild oat (Avena fatua); conditions: for herbicidal effect on wild oat (I): foliage application, 320 g/ha, three weeks after application
Outline: as §2

barnyard grass = assay: Test Example 5: herbicidal effect by foliage application, plastic box (Table 20, symbol H); type: in vivo, barnyard grass (Echinochloa crus-galli); conditions: for herbicidal effect on barnyard grass (H): foliage application, 320 g/ha, three weeks after application
Outline: as §2

blackgrass [4] = assay: Test Example 5: herbicidal effect by foliage application, plastic box (Table 20, symbol J); type: in vivo, blackgrass (Alopecurus myosuroides); conditions: for herbicidal effect on blackgrass (J): foliage application, 320 g/ha, three weeks after application
Outline: as §2

Japanese bulrush = assay: Test Example 2: herbicidal activity, application during weed generation under submerged conditions (Table 17, symbol B); type: in vivo, Japanese bulrush (Schoenoplectus juncoides); conditions: AAH 320 g/ha; application during weed generation, submerged conditions
Outline: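 Alluvial soil in Wagner pots was flooded to 4 cm depth and sown with the three weeds together; pots were kept in a greenhouse at 25° C. to 30° C. At the one to two leaf stage, an emulsion formulation diluted in water to a set rate went onto the water surface; scored three weeks later.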

southern crabgrass [5] = assay: Test Example 5: herbicidal effect by foliage application, plastic box (Table 20, symbol F); type: in vivo, southern crabgrass (Digitaria ciliaris); conditions: for herbicidal effect on southern crabgrass (F): foliage application, 320 g/ha, three weeks after application
Outline: as §2

wild oat [6] = assay: Test Example 4: herbicidal effect by soil treatment (Table 19, symbol I); type: in vivo, wild oat (Avena fatua); conditions: amount of applied herbicide 320 g/ha
Outline: as §3

green foxtail = assay: Test Example 4: herbicidal effect by soil treatment (Table 19, symbol G); type: in vivo, green foxtail (Setaria viridis); conditions: amount of applied herbicide 320 g/ha
Outline: as §3

[7] = amount of applied herbicide 320 g/ha, foliage application after 14-day growth, evaluated three weeks after application

Row | Compound | herbicidal effect on Chinese sprangletop (D) (Chinese sprangletop) | herbicidal effect on lambsquarters (O) (lambsquarters) | herbicidal effect on rice flat sedge (E) (rice flat sedge) | N: redroot pigweed, herbicidal effect grade (redroot pigweed) | herbicidal effect on velvetleaf (M) (velvetleaf) | herbicidal effect on Italian ryegrass (K) (Italian ryegrass) | J: blackgrass, herbicidal effect grade (blackgrass [1]) | Herbicidal effect, C: oval-leafed pondweed (oval-leafed pondweed) | F: southern crabgrass, herbicidal effect grade (southern crabgrass [2]) | herbicidal effect on wild oat (I) (wild oat [3]) | herbicidal effect on barnyard grass (H) (barnyard grass) | herbicidal effect on blackgrass (J) (blackgrass [4]) | herbicidal effect rating, B: Japanese bulrush (Japanese bulrush) | herbicidal effect on southern crabgrass (F) (southern crabgrass [5]) | I: wild oat, herbicidal effect grade (wild oat [6]) | G: green foxtail, herbicidal effect grade (green foxtail) | Herbicidal effect on D (Chinese sprangletop), foliage application (Chinese sprangletop) | Herbicidal effect on E (rice flat sedge), foliage application (rice flat sedge) | further results
1 | COc1cc(F)ccc1-c1sc2cc(C)c(C)cc2c1-c1c(O)c(C)nn(C)c1=O [5-101] | 2 (Herbicidal rate of 20% or more and less than 40%) | 4 (Herbicidal rate of 70% or more and less than 90%) | 3 (Herbicidal rate of 40% or more and less than 70%) | 1 (Herbicidal rate of 5% or more and less than 20%) | 4 (Herbicidal rate of 70% or more and less than 90%) | 4 (Herbicidal rate of 70% or more and less than 90%) | 0 (Herbicidal rate of 5% or less (almost no effect)) | 3 (Herbicidal rate of 40% or more and less than 70%) | 0 (Herbicidal rate of 5% or less (almost no effect)) | 0 (Herbicidal rate of 5% or less (almost no effect)) | 3 (Herbicidal rate of 40% or more and less than 70%) | 4 (Herbicidal rate of 70% or more and less than 90%) | 2 (Herbicidal rate of 20% or more and less than 40%) | 4 (Herbicidal rate of 70% or more and less than 90%) | 0 (Herbicidal rate of 5% or less (almost no effect)) | 0 (Herbicidal rate of 5% or less (almost no effect)) |  |  | 
2 | Cc1nn(C)c(=O)c(-c2c(-c3ccc(Cl)cc3)sc3c(C)cccc23)c1O [4-102] | 3 (Herbicidal rate of 40% or more and less than 70%) |  | 5 (Herbicidal rate of 90% or more (almost completely withered)) |  |  |  |  | 0 (Herbicidal rate of 5% or less (almost no effect)) |  |  |  |  | 0 (Herbicidal rate of 5% or less (almost no effect)) |  |  |  |  |  | Herbicidal effect by foliage application, O: lambsquarters (lambsquarters; [7]): 4 (Herbicidal rate of 70% or more and less than 90%); Herbicidal effect by soil treatment, N: redroot pigweed (redroot pigweed): 4 (Herbicidal rate of 70% or more and less than 90%); Herbicidal effect by foliage application, M: velvetleaf (velvetleaf; [7]): 5 (Herbicidal rate of 90% or more (almost completely withered)); Herbicidal effect by foliage application, K: Italian ryegrass (Italian ryegrass; [7]): 4 (Herbicidal rate of 70% or more and less than 90%); Herbicidal effect by soil treatment, J: blackgrass (blackgrass [1]): 0 (Herbicidal rate of 5% or less (almost no effect)); Herbicidal effect by soil treatment, F: southern crabgrass (southern crabgrass [2]): 0 (Herbicidal rate of 5% or less (almost no effect)); Herbicidal effect by foliage application, I: wild oat (wild oat [3]; [7]): 0 (Herbicidal rate of 5% or less (almost no effect)); Herbicidal effect by foliage application, H: barnyard grass (barnyard grass; [7]): 0 (Herbicidal rate of 5% or less (almost no effect)); Herbicidal effect by foliage application, J: blackgrass (blackgrass [4]; [7]): 0 (Herbicidal rate of 5% or less (almost no effect)); Herbicidal effect by foliage application, F: southern crabgrass (southern crabgrass [5]; [7]): 0 (Herbicidal rate of 5% or less (almost no effect)); Herbicidal effect by soil treatment, I: wild oat (wild oat [6]): 0 (Herbicidal rate of 5% or less (almost no effect)); Herbicidal effect by soil treatment, G: green foxtail (green foxtail): 0 (Herbicidal rate of 5% or less (almost no effect))
3 | COCCOc1ccc(-c2oc3ccccc3c2-c2c(O)c(C)nn(C)c2=O)cc1 [Compound No. 8-007, 5-hydroxy-4-(2-(4-(2-methoxyethoxy)phenyl)benzofuran-3-yl)-2,6-dimethylpyridazin-3-(2H)-one] |  | 4 (Herbicidal rate of 70% or more and less than 90%) |  | 5 (Herbicidal rate of 90% or more (almost completely withered)) | 5 (Herbicidal rate of 90% or more (almost completely withered)) | 5 (Herbicidal rate of 90% or more (almost completely withered)) | 3 (Herbicidal rate of 40% or more and less than 70%) | 4 (Herbicidal rate of 70% or more and less than 90%) | 5 (Herbicidal rate of 90% or more (almost completely withered)) | 1 (Herbicidal rate of 5% or more and less than 20%) | 5 (Herbicidal rate of 90% or more (almost completely withered)) | 5 (Herbicidal rate of 90% or more (almost completely withered)) | 4 (Herbicidal rate of 70% or more and less than 90%) | 5 (Herbicidal rate of 90% or more (almost completely withered)) | 0 (Herbicidal rate of 5% or less (almost no effect)) | 5 (Herbicidal rate of 90% or more (almost completely withered)) | 3 (Herbicidal rate of 40% or more and less than 70%) | 5 (Herbicidal rate of 90% or more (almost completely withered)) | 
4 | COc1ccccc1-c1sc2c(Br)c(OC)ccc2c1-c1c(O)c(C)nn(C)c1=O [7-002] |  | 4 (Herbicidal rate of 70% or more and less than 90%) |  | 5 (Herbicidal rate of 90% or more (almost completely withered)) | 4 (Herbicidal rate of 70% or more and less than 90%) | 5 (Herbicidal rate of 90% or more (almost completely withered)) | 0 (Herbicidal rate of 5% or less (almost no effect)) | 3 (Herbicidal rate of 40% or more and less than 70%) | 1 (Herbicidal rate of 5% or more and less than 20%) | 0 (Herbicidal rate of 5% or less (almost no effect)) | 5 (Herbicidal rate of 90% or more (almost completely withered)) | 0 (Herbicidal rate of 5% or less (almost no effect)) | 2 (Herbicidal rate of 20% or more and less than 40%) | 0 (Herbicidal rate of 5% or less (almost no effect)) | 0 (Herbicidal rate of 5% or less (almost no effect)) | 0 (Herbicidal rate of 5% or less (almost no effect)) | 2 (Herbicidal rate of 20% or more and less than 40%) | 4 (Herbicidal rate of 70% or more and less than 90%) | 
